Measurements reported in paper PMC2713172 (Biochemistry, 2008).
Where two headings read alike, the source gives them in different places.

Columns and labels:
wild-type CYP2C9 [1] = target: T1, wild-type CYP2C9 (Homo sapiens, UniProt P11712); assay: biochemical
wild-type CYP2C9 [2] = target: T1, wild-type CYP2C9
CYP2C9 F100L mutant [3] = target: T2, CYP2C9 F100L mutant (Homo sapiens, UniProt P11712, F100L)
wild-type CYP2C9 [4] = target: T1, wild-type CYP2C9; remark: listed apart in the source
CYP2C9 F476W mutant [5] = target: T3, CYP2C9 F476W mutant (Homo sapiens, UniProt P11712, F476W)
[6] = target: CYP2C9 F114W/F476W double mutant (Homo sapiens, UniProt P11712, F114W/F476W); assay: in vitro; conditions: pH 7.4
CYP2C9 F476W mutant [7] = target: T3, CYP2C9 F476W mutant; assay: 1H-NMR T1 relaxation, distances of ligand protons from the heme iron
[8] = target: T4, CYP2C9 F114L/F476L double mutant (Homo sapiens, UniProt P11712, F114L/F476L); conditions: F114L/F476L
CYP2C9 F476L mutant [9] = target: T5, CYP2C9 F476L mutant (Homo sapiens, UniProt P11712, F476L)
CYP2C9 F114L mutant [10] = target: T6, CYP2C9 F114L mutant (Homo sapiens, UniProt P11712, F114L); conditions: F114L
CYP2C9 F100L mutant [11] = target: T2, CYP2C9 F100L mutant; assay: biochemical
CYP2C9 F476L mutant [12] = target: T5, CYP2C9 F476L mutant; conditions: F476L
wild-type CYP2C9 [13] = target: T1, wild-type CYP2C9; remark: listed apart in the source
CYP2C9 F476W mutant [14] = target: T3, CYP2C9 F476W mutant; remark: listed apart in the source
CYP2C9 F476W mutant [15] = target: T3, CYP2C9 F476W mutant; assay: biochemical
wild-type CYP2C9 [16] = target: T1, wild-type CYP2C9; conditions: WT; for T1, 2C9 + CO: dithionite/CO
CYP2C9 F476L mutant [17] = target: T5, CYP2C9 F476L mutant; assay: biochemical
CYP2C9 F114L mutant [18] = target: T6, CYP2C9 F114L mutant
CYP2C9 F114L mutant [19] = target: T6, CYP2C9 F114L mutant; assay: biochemical
[20] = target: T4, CYP2C9 F114L/F476L double mutant
CYP2C9 F100L mutant [21] = target: T2, CYP2C9 F100L mutant; assay: in vitro; conditions: pH 7.4
CYP2C9 F114W mutant [22] = target: T7, CYP2C9 F114W mutant (Homo sapiens, UniProt P11712, F114W); assay: in vitro; conditions: pH 7.4
CYP2C9 F114W mutant [23] = target: T7, CYP2C9 F114W mutant
CYP2C9 F476W mutant [24] = target: T3, CYP2C9 F476W mutant; remark: listed apart in the source

Kd (wild-type CYP2C9 [1]): 3.4 ± 0.4 µM
percent of wild-type kcat/Km (wild-type CYP2C9 [2]; WT): 100%
kcat (wild-type CYP2C9 [2]; WT, substrate hydroxylation): 0.15 ± 0.0067 s⁻¹
Km at 20 min (wild-type CYP2C9 [2]; human, pH 7.4): 22.9 ± 3.7 µM
percent of wild-type kcat/Km (CYP2C9 F100L mutant [3]): 100%
kcat (CYP2C9 F100L mutant [3]; substrate hydroxylation): 0.205 ± 0.012 s⁻¹
H2O2/O2 (wild-type CYP2C9 [4]; WT): 0.43
H2O/Metabolite (wild-type CYP2C9 [4]; WT): 0.7
Metabolite/NADPH (wild-type CYP2C9 [4]; WT, coupling efficiency): 0.21
coupling of hydroxylation to NADPH consumption (wild-type CYP2C9 [4]; wild-type CYP2C9): ~ 20%
H2O2/O2 (CYP2C9 F476W mutant [5]): 0.71
H2O/Metabolite (CYP2C9 F476W mutant [5]): 1.6
Metabolite/NADPH (CYP2C9 F476W mutant [5]; coupling efficiency): 0.06
Km at 20 min [6]: 237 ± 11.8 µM
T1, 2C9 (CYP2C9 F476W mutant [7]; proton H2): 2.56 (0.15) seconds
r, distance of proton from the heme iron (CYP2C9 F476W mutant [7]; proton H2): 6.58 (0.28) angstroms
T1, 2C9 + CO (CYP2C9 F476W mutant [7]; proton H2, dithionite/CO): 2.34 (0.14) seconds
T1, 2C9 (CYP2C9 F476W mutant [7]; proton H4′): 2.88 (0.14) seconds
r, distance of proton from the heme iron (CYP2C9 F476W mutant [7]; proton H4′): 6.40 (0.32) angstroms
T1, 2C9 + CO (CYP2C9 F476W mutant [7]; proton H4′, dithionite/CO): 2.55 (0.16) seconds
T1, 2C9 (CYP2C9 F476W mutant [7]; proton H5): 2.11 (0.10) seconds
r, distance of proton from the heme iron (CYP2C9 F476W mutant [7]; proton H5): 6.47 (0.24) angstroms
T1, 2C9 + CO (CYP2C9 F476W mutant [7]; proton H5, dithionite/CO): 2.24 (0.18) seconds
T1, 2C9 (CYP2C9 F476W mutant [7]; proton H6): 1.78 (0.08) seconds
r, distance of proton from the heme iron (CYP2C9 F476W mutant [7]; proton H6): 6.79 (0.22) angstroms
T1, 2C9 + CO (CYP2C9 F476W mutant [7]; proton H6, dithionite/CO): 1.85 (0.08) seconds
T1, 2C9 (CYP2C9 F476W mutant [7]; protons CH3): 0.67 (0.01) seconds
r, distance of proton from the heme iron (CYP2C9 F476W mutant [7]; protons CH3): 5.62 (0.25) angstroms
T1, 2C9 + CO (CYP2C9 F476W mutant [7]; protons CH3, dithionite/CO): 0.65 (0.03) seconds
T1, 2C9 (CYP2C9 F476W mutant [7]; protons H2′/6′): 2.38 (0.06) seconds
r, distance of proton from the heme iron (CYP2C9 F476W mutant [7]; protons H2′/6′): 7.15 (0.13) angstroms
T1, 2C9 + CO (CYP2C9 F476W mutant [7]; protons H2′/6′, dithionite/CO): 2.54 (0.07) seconds
T1, 2C9 (CYP2C9 F476W mutant [7]; protons H3′/5′): 2.39 (0.08) seconds
r, distance of proton from the heme iron (CYP2C9 F476W mutant [7]; protons H3′/5′): 6.49 (0.20) angstroms
T1, 2C9 + CO (CYP2C9 F476W mutant [7]; protons H3′/5′, dithionite/CO): 2.39 (0.16) seconds
percent of wild-type ΔA/K [8]: 8%
ΔA/K [8]: 0.4 μM^−1 × 10^−3
ΔAmax (maximum observed difference 390–420 nm) [8]: 4.4 ± 0.2 ×10^−3
percent of wild-type kcat/Km (CYP2C9 F476L mutant [9]; F476L): 29%
decrease of the efficiency of metabolism (CYP2C9 F476L mutant [9]; F476→L mutation vs wild-type): 70%
percent of wild-type ΔA/K (CYP2C9 F114L mutant [10]): 46%
ΔA/K (CYP2C9 F114L mutant [10]): 2.4 μM^−1 × 10^−3
ΔAmax (maximum observed difference 390–420 nm) (CYP2C9 F114L mutant [10]): 10 ± 0.4 ×10^−3
Kd (CYP2C9 F100L mutant [11]): 2.2 ± 0.2 µM
percent of wild-type ΔA/K (CYP2C9 F476L mutant [12]): 23%
ΔA/K (CYP2C9 F476L mutant [12]): 1.2 μM^−1 × 10^−3
ΔAmax (maximum observed difference 390–420 nm) (CYP2C9 F476L mutant [12]): 11 ± 0.4 ×10^−3
fraction high spin (wild-type CYP2C9 [13]; WT + ligand, used for the NMR distance calculation): 0.16
percent of wild-type ΔA/K (wild-type CYP2C9 [13]; Wild-type): 100%
ΔA/K (wild-type CYP2C9 [13]; Wild-type): 5.3 μM^−1 × 10^−3
ΔAmax (maximum observed difference 390–420 nm) (wild-type CYP2C9 [13]; Wild-type): 18 ± 0.5 ×10^−3
percent of wild-type ΔA/K (CYP2C9 F476W mutant [14]; F476W): 5%
ΔA/K (CYP2C9 F476W mutant [14]; F476W): 0.3 μM^−1 × 10^−3
fraction high spin (CYP2C9 F476W mutant [14]; F476W + ligand, used for the NMR distance calculation): 0.06
Kd (CYP2C9 F476W mutant [15]): 18.3 ± 1.9 µM
T1, 2C9 (wild-type CYP2C9 [16]; proton H2): 2.44 (0.10) seconds
r, distance of proton from the heme iron (wild-type CYP2C9 [16]; proton H2): 5.95 (0.11) angstroms
T1, 2C9 + CO (wild-type CYP2C9 [16]; proton H2): 2.79 (0.14) seconds
T1, 2C9 (wild-type CYP2C9 [16]; proton H4′): 3.44 (0.26) seconds
r, distance of proton from the heme iron (wild-type CYP2C9 [16]; proton H4′): 6.11 (0.19) angstroms
T1, 2C9 + CO (wild-type CYP2C9 [16]; proton H4′): 4.25 (0.44) seconds
T1, 2C9 (wild-type CYP2C9 [16]; proton H5): 2.17 (0.07) seconds
r, distance of proton from the heme iron (wild-type CYP2C9 [16]; proton H5): 6.27 (0.16) angstroms
T1, 2C9 + CO (wild-type CYP2C9 [16]; proton H5): 2.26 (0.10) seconds
T1, 2C9 (wild-type CYP2C9 [16]; proton H6): 1.79 (0.05) seconds
r, distance of proton from the heme iron (wild-type CYP2C9 [16]; proton H6): 7.30 (0.19) angstroms
T1, 2C9 + CO (wild-type CYP2C9 [16]; proton H6): 2.04 (0.10) seconds
T1, 2C9 (wild-type CYP2C9 [16]; protons CH3): 0.68 (0.01) seconds
r, distance of proton from the heme iron (wild-type CYP2C9 [16]; protons CH3): 7.82 (0.09) angstroms
T1, 2C9 + CO (wild-type CYP2C9 [16]; protons CH3): 0.68 (0.01) seconds
T1, 2C9 (wild-type CYP2C9 [16]; protons H2′/6′): 2.38 (0.07) seconds
r, distance of proton from the heme iron (wild-type CYP2C9 [16]; protons H2′/6′): 6.02 (0.37) angstroms
T1, 2C9 + CO (wild-type CYP2C9 [16]; protons H2′/6′): 2.77 (0.07) seconds
T1, 2C9 (wild-type CYP2C9 [16]; protons H3′/5′): 2.42 (0.08) seconds
r, distance of proton from the heme iron (wild-type CYP2C9 [16]; protons H3′/5′): 5.82 (0.15) angstroms
T1, 2C9 + CO (wild-type CYP2C9 [16]; protons H3′/5′): 2.70 (0.11) seconds
Kd (CYP2C9 F476L mutant [17]): 9.1 ± 1 µM
percent of wild-type kcat/Km (CYP2C9 F114L mutant [18]): 28%
Kd (CYP2C9 F114L mutant [19]): 4.1 ± 0.6 µM
percent of wild-type kcat/Km [20]: 3%
Km at 20 min (CYP2C9 F100L mutant [21]): 34.8 ± 7 µM
Km at 20 min (CYP2C9 F114W mutant [22]): 19.5 ± 3.2 µM
percent of wild-type kcat/Km (CYP2C9 F114W mutant [23]): 120%
kcat (CYP2C9 F114W mutant [23]; substrate hydroxylation): 0.153 ± 0.0067 s⁻¹
decrease of efficiency of turnover relative to wild-type (CYP2C9 F476W mutant [24]): 20 fold
percent of wild-type kcat/Km (CYP2C9 F476W mutant [24]): 5%
kcat (CYP2C9 F476W mutant [24]; substrate hydroxylation): 0.0267 ± 0.0033 s⁻¹
SMILES: C[C@H](C(=O)O)c1ccc(-c2ccccc2)c(F)c1 [(S)-flurbiprofen]
